Experimental data published in US10829520B2, “Beta-hairpin peptidomimetics” (POLYPHOR AG, priority 2015, dated 2020).
Where a SMILES comes first, the peptide text is derived from it. Bridges are numbered along the chain shown (N, C = ends). Roman numbers before positions name the chains, in order. [ ]: non-standard residue; d: D form. Hyp = O=C(O)[C@@H]1C[C@@H](O)CN1; Tle = CC(C)(C)[C@H](N)C(=O)O; dDab = NCC[C@@H](N)C(=O)O; hCys = N[C@@H](CCS)C(=O)O; Dab = NCC[C@H](N)C(=O)O; dAze = O=C(O)[C@H]1CCN1

Tests used:
Assay type in all cases: cell-based
[1] = system: Acinetobacter baumannii DSM 30008; details: DSM 30008
Procedure: (§1) Lyophilized peptides were weighed on a Microbalance (Mettler MT5) and dissolved in sterile water to a final concentration of 1 mg/mL. Stock solutions were kept at +4° C., light protected.
(§2) The in vitro antimicrobial activities of the peptides were determined in 96-well plates (Greiner, polystyrene) by the standard CLSI broth microdilution method (Clinical and Laboratory Standards Institute 2014. Performance standards for antimicrobial susceptibility testing, 24th informational supplement. Approved standard CLSI M100-S24; Clinical and Laboratory Standards Institute, Wayne, Pa.). Inocula of the microorganisms were diluted into Mueller-Hinton II (MH-cation adjusted) broth and compared with a 0.5 McFarland standard to give appr. 10^6 colony forming units (CFU)/mL. Aliquots (90 μL) of inoculate were added to 10 μL of MH-II broth+P-80 (Polysorbate 80, 0.002% final concentration, v/v) containing the peptide in serial two-fold dilutions. The following microorganisms were used to determine antibiotic activity of the peptides: Escherichia coli ATCC 25922, Klebsiella pneumoniae SSI #3010^a), Acinetobacter baumannii DSM 30008, Pseudomonas aeruginosa ATCC 27853 and the clinical isolates Escherichia coli 926415^b), Klebsiella pneumoniae 968733^b) and Acinetobacter baumannii 872842^b). Antimicrobial activities of the peptides were expressed as the minimal inhibitory concentration (MIC) in μg/mL at which no visible growth was observed after 18-20 hours of incubation at 35° C. ^a) Obtained from Statens Serum Institut (SSI), Copenhagen, Denmark^b) Obtained from International Health Management Associates, Inc. (IHMA Europe Sàrl), Epalinges, Switzerland

[2] = system: Escherichia coli ATCC 25922; details: ATCC 25922
Procedure: as §1, §2

[3] = system: Klebsiella pneumoniae SSI #3010; details: SSI #3010
Procedure: as §1, §2

[4] = system: Pseudomonas aeruginosa ATCC 27853; details: ATCC 27853
Procedure: as §1, §2

[5] = system: human red blood cells (hRBC); test: Hemolysis of human red blood cells; details: red cells of human, 1 h
Procedure: as §1
The peptides were tested for their hemolytic activity against human red blood cells (hRBC). Fresh hRBC were washed three times with phosphate buffered saline (PBS) and centrifuged for 10 min at 2000×g. Compounds (100 μg/mL) were incubated with 20% hRBC (v/v) for 1 h at 37° C. and shaking at 300 rpm. The final erythrocyte concentration was approximately 0.9×10^9 cells/mL. A value of 0% and 100% cell lyses, respectively, was determined by incubation of hRBC in the presence of PBS containing 0.001% acetic acid and 2.5% Triton X-100 in H2O, respectively. The samples were centrifuged, the supernatants were 8-fold diluted in PBS buffer and the optical densities (OD) were measured at 540 nm. The 100% lyses value (OD540H2O) gave an OD540 of approximately 0.5-1.0.
Percent hemolysis was calculated as follows: (OD540peptide/OD540H2O)×100%.

CC(C)C[C@@H]1NC(=O)[C@H](CCCNC(=N)N)NC(=O)[C@@H](CCN)NC(=O)[C@H](C(C)C)NC(=O)[C@H](C)NC(=O)[C@H](Cc2ccc(O)cc2)NC(=O)[C@H](CCN)NC(=O)[C@H](Cc2c[nH]c3ccccc23)NC(=O)[C@H](CCN)NC(=O)[C@@H](CCN)NC(=O)[C@H](CCC(=O)N[C@@H](CCN)C(=O)N[C@H](C(=O)N[C@@H](CCN)C(=O)N[C@H]2CCNC(=O)[C@H]([C@@H](C)O)NC(=O)[C@H](CCN)NC(=O)[C@H](CCN)NC(=O)[C@H](CC(C)C)NC(=O)[C@@H](CC(C)C)NC(=O)[C@H](CCN)NC2=O)[C@@H](C)O)NC(=O)[C@H](CCN)NC(=O)[C@H](Cc2ccc(O)cc2)NC(=O)[C@H](CO)NC1=O [Ex. 97] (I: cyclo(AV[dDab]RLSY[Dab]E[dDab][Dab]W[Dab]Y) / II: [Dab]T[Dab][Dab][Dab][dL]L[Dab][Dab]T; amide I:9-II:N; lactam II:4-II:C)
Acinetobacter baumannii DSM 30008 MIC [1]: 2 µg/mL
Escherichia coli ATCC 25922 MIC [2]: 0.5 µg/mL
Klebsiella pneumoniae SSI #3010 MIC [3]: 0.5 µg/mL
Pseudomonas aeruginosa ATCC 27853 MIC [4]: 0.5 µg/mL
Hemolysis at 100 μg/mL [5]; 100: 1%

CC(C)C[C@@H]1NC(=O)[C@@H](CC(C)C)NC(=O)[C@H](CCN)NC(=O)[C@@H](NC(=O)[C@H](CCN)NC(=O)[C@@H](NC(=O)[C@H](CCN)NC(=O)CC[C@@H]2NC(=O)[C@H](CCN)NC(=O)[C@H](Cc3ccc(O)cc3)NC(=O)[C@H]([C@@H](C)O)NC(=O)[C@H](C(C)C)NC(=O)[C@@H]3CCCN3C(=O)[C@H]3CCN3C(=O)[C@H](CO)NC(=O)[C@H](C)NC(=O)[C@H](C(C)(C)C)NC(=O)[C@H](CCN)NC(=O)[C@H](Cc3c[nH]c4ccccc34)NC(=O)[C@H](CCN)NC(=O)[C@@H](CCN)NC2=O)[C@@H](C)O)CCNC(=O)[C@H]([C@@H](C)O)NC(=O)[C@H](CCN)NC(=O)[C@H](CCN)NC1=O [Ex. 101] (I: cyclo(AS[dAze]PVTY[Dab]E[dDab][Dab]W[Dab][Tle]) / II: [Dab]T[Dab][Dab][Dab][dL]L[Dab][Dab]T; amide I:9-II:N; lactam II:4-II:C)
Acinetobacter baumannii DSM 30008 MIC [1]: 2 µg/mL
Escherichia coli ATCC 25922 MIC [2]: 1 µg/mL
Klebsiella pneumoniae SSI #3010 MIC [3]: 1 µg/mL
Pseudomonas aeruginosa ATCC 27853 MIC [4]: 0.25 µg/mL
Hemolysis at 100 μg/mL [5]; 100: 4%

CC(C)C[C@@H]1NC(=O)[C@@H](CC(C)C)NC(=O)[C@H](CCN)NC(=O)[C@@H](NC(=O)[C@H](CCN)NC(=O)[C@@H](NC(=O)[C@H](CCN)NC(=O)CNC(=O)[C@@H]2CCSSC[C@H](NC(=O)[C@@H](N)Cc3c[nH]c4ccccc34)C(=O)N[C@@H](C(C)C)C(=O)N[C@@H](C)C(=O)N[C@@H](CO)C(=O)N3CCC[C@@H]3C(=O)N3CCC[C@H]3C(=O)N[C@@H](CC(C)C)C(=O)N[C@@H](CO)C(=O)N[C@@H](Cc3ccc(O)cc3)C(=O)N2)[C@@H](C)O)CCNC(=O)[C@H]([C@@H](C)O)NC(=O)[C@H](CCN)NC(=O)[C@H](CCN)NC1=O [Ex. 134] (H-WCVAS[dP]PLSY[hCys]G[Dab]T[Dab][Dab][Dab][dL]L[Dab][Dab]T; disulfide 2-11; lactam 16-C)
Acinetobacter baumannii DSM 30008 MIC [1]: 0.125 µg/mL
Escherichia coli ATCC 25922 MIC [2]: 0.125 µg/mL
Klebsiella pneumoniae SSI #3010 MIC [3]: 0.25 µg/mL
Pseudomonas aeruginosa ATCC 27853 MIC [4]: 1 µg/mL
Hemolysis at 100 μg/mL ([5]; 100 μg/mL): <1%

CC(C)C[C@@H]1NC(=O)[C@H](CCN)NC(=O)[C@@H](CCN)NC(=O)[C@H](CO)NC(=O)[C@@H](NC(=O)[C@@H](NC(=O)[C@H](CCN)NC(=O)[C@@H](N)Cc2c[nH]c3ccccc23)C(C)C)CSSC[C@@H](C(=O)N[C@@H](Cc2ccc(O)cc2)C(=O)N[C@@H](CCN)C(=O)NCC(=O)N[C@@H](CCN)C(=O)N[C@H](C(=O)N[C@@H](CCN)C(=O)N[C@H]2CCNC(=O)[C@H]([C@@H](C)O)NC(=O)[C@H](CCN)NC(=O)[C@H](CCN)NC(=O)[C@H](CC(C)C)NC(=O)[C@@H](CC(C)C)NC(=O)[C@H](CCN)NC2=O)[C@@H](C)O)NC1=O [Ex. 163] (H-W[Dab]VCS[dDab][Dab]LCY[Dab]G[Dab]T[Dab][Dab][Dab][dL]L[Dab][Dab]T; disulfide 4-9; lactam 16-C)
Acinetobacter baumannii DSM 30008 MIC [1]: 1 µg/mL
Escherichia coli ATCC 25922 MIC [2]: 2 µg/mL
Klebsiella pneumoniae SSI #3010 MIC [3]: 2 µg/mL
Pseudomonas aeruginosa ATCC 27853 MIC [4]: 2 µg/mL
Hemolysis at 100 μg/mL ([5]; 100 μg/mL): <1%

CC(C)C[C@@H]1NC(=O)[C@@H](CC(C)C)NC(=O)[C@H](CCN)NC(=O)[C@@H](NC(=O)[C@H](CCN)NC(=O)[C@@H](NC(=O)[C@H](CCN)NC(=O)CNC(=O)[C@H](CCN)NC(=O)[C@H](Cc2ccc(O)cc2)NC(=O)[C@@H]2CSSC[C@H](NC(=O)[C@@H](NC(=O)[C@H](CCN)NC(=O)[C@@H](N)Cc3c[nH]c4ccccc34)C(C)C)C(=O)N[C@@H](CO)C(=O)N[C@H](C)C(=O)N3C[C@H](O)C[C@H]3C(=O)N[C@@H](CC(C)C)C(=O)N2)[C@@H](C)O)CCNC(=O)[C@H]([C@@H](C)O)NC(=O)[C@H](CCN)NC(=O)[C@H](CCN)NC1=O [Ex. 164] (H-W[Dab]VCS[dA][Hyp]LCY[Dab]G[Dab]T[Dab][Dab][Dab][dL]L[Dab][Dab]T; disulfide 4-9; lactam 16-C)
Acinetobacter baumannii DSM 30008 MIC [1]: 0.25 µg/mL
Escherichia coli ATCC 25922 MIC [2]: 0.0625 µg/mL
Klebsiella pneumoniae SSI #3010 MIC [3]: 0.5 µg/mL
Pseudomonas aeruginosa ATCC 27853 MIC [4]: 0.5 µg/mL
Hemolysis at 100 μg/mL ([5]; 100 μg/mL): <1%

CC(C)C[C@@H]1NC(=O)[C@@H](CC(C)C)NC(=O)[C@H](CCN)NC(=O)[C@@H](NC(=O)[C@H](CCN)NC(=O)[C@@H](NC(=O)[C@H](CCN)NC(=O)CNC(=O)[C@H](CCN)NC(=O)[C@H](Cc2ccc(O)cc2)NC(=O)[C@@H]2CSSC[C@H](NC(=O)[C@H](Cc3ccc(O)cc3)NC(=O)[C@H](CCN)NC(=O)[C@@H](N)Cc3c[nH]c4ccccc34)C(=O)N[C@@H](CO)C(=O)N3CCC[C@@H]3C(=O)N3CCC[C@H]3C(=O)N[C@@H](CC(C)C)C(=O)N2)[C@@H](C)O)CCNC(=O)[C@H]([C@@H](C)O)NC(=O)[C@H](CCN)NC(=O)[C@H](CCN)NC1=O [Ex. 165] (H-W[Dab]YCS[dP]PLCY[Dab]G[Dab]T[Dab][Dab][Dab][dL]L[Dab][Dab]T; disulfide 4-9; lactam 16-C)
Acinetobacter baumannii DSM 30008 MIC [1]: 2 µg/mL
Escherichia coli ATCC 25922 MIC [2]: 0.5 µg/mL
Klebsiella pneumoniae SSI #3010 MIC [3]: 1 µg/mL
Pseudomonas aeruginosa ATCC 27853 MIC [4]: 1 µg/mL
Hemolysis at 100 μg/mL ([5]; 100 μg/mL): 1%

CC(C)C[C@@H]1NC(=O)[C@H](CCCNC(=N)N)NC(=O)[C@@H](CCN)NC(=O)[C@H](C(C)C)NC(=O)[C@@H](NC(=O)[C@H](Cc2ccc(O)cc2)NC(=O)[C@H](CCN)NC(=O)[C@@H](N)Cc2c[nH]c3ccccc23)CSSC[C@@H](C(=O)N[C@@H](Cc2ccc(O)cc2)C(=O)N[C@@H](CCN)C(=O)NCC(=O)N[C@@H](CCN)C(=O)N[C@H](C(=O)N[C@@H](CCN)C(=O)N[C@H]2CCNC(=O)[C@H]([C@@H](C)O)NC(=O)[C@H](CCN)NC(=O)[C@H](CCN)NC(=O)[C@H](CC(C)C)NC(=O)[C@@H](CC(C)C)NC(=O)[C@H](CCN)NC2=O)[C@@H](C)O)NC1=O [Ex. 166] (H-W[Dab]YCV[dDab]RLCY[Dab]G[Dab]T[Dab][Dab][Dab][dL]L[Dab][Dab]T; disulfide 4-9; lactam 16-C)
Acinetobacter baumannii DSM 30008 MIC [1]: 2 µg/mL
Escherichia coli ATCC 25922 MIC [2]: 2 µg/mL
Klebsiella pneumoniae SSI #3010 MIC [3]: 2 µg/mL
Pseudomonas aeruginosa ATCC 27853 MIC [4]: 2 µg/mL
Hemolysis at 100 μg/mL ([5]; 100 μg/mL): 3%
